In PubChem BioAssay AID248 (DTP/NCI, 2004):
Several values for one entry are separate records, joined by “and”; a condition that tells them apart may be missing. Equal values may be shown once. Toxic doses and inconclusive results are not listed.

System: L1210 leukemia ip in BDF1 mice, survival T/C
Experiment: NCI In Vivo Anticancer Drug Screen. Data for tumor model L1210 Leukemia (intraperitoneal) in B6D2F1 (BDF1) mice
Conditions: endpoint: mean survival time, higher = longer survival
Summary of the method: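 Transplantable tumor model; survival measured in treated vs vehicle control mice. Value = treated/control.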

[1] = dose: 100.0 mg/kg/injection, schedule: Q01DX009 (ip), vehicle: Klucel (hydroxypropylcellulose) (HPC)
[2] = dose: 100.0 mg/kg/injection, schedule: Q04DX002 (ip), vehicle: Klucel (hydroxypropylcellulose) (HPC)
[3] = dose: 200.0 mg/kg/injection, schedule: Q01DX009 (ip), vehicle: Klucel (hydroxypropylcellulose) (HPC)
[4] = dose: 200.0 mg/kg/injection, schedule: Q04DX002 (ip), vehicle: Klucel (hydroxypropylcellulose) (HPC)
[5] = dose: 400.0 mg/kg/injection, schedule: Q01DX009 (ip), vehicle: Klucel (hydroxypropylcellulose) (HPC)
[6] = dose: 400.0 mg/kg/injection, schedule: Q04DX002 (ip), vehicle: Klucel (hydroxypropylcellulose) (HPC)
[7] = dose: 100.0 mg/kg/injection, schedule: Q01DX009 (ip), vehicle: saline with Tween-80
[8] = dose: 200.0 mg/kg/injection, schedule: Q01DX009 (ip), vehicle: saline with Tween-80
[9] = dose: 100.0 mg/kg/injection, schedule: Q04DX003 (ip), vehicle: gum acacia
[10] = dose: 100.0 mg/kg/injection, schedule: Q04DX003 (ip), vehicle: saline with Tween-80
[11] = dose: 200.0 mg/kg/injection, schedule: Q04DX003 (ip), vehicle: saline with Tween-80
[12] = dose: 400.0 mg/kg/injection, schedule: Q04DX003 (ip), vehicle: saline with Tween-80
[13] = dose: 400.0 mg/kg/injection, schedule: Q04DX002 (ip), vehicle: saline with Tween-80
[14] = dose: 100.0 mg/kg/injection, schedule: Q01DX009 (ip), vehicle: saline
[15] = dose: 200.0 mg/kg/injection, schedule: Q01DX009 (ip), vehicle: saline

SMILES: O=C1CCCCC1CO (stereo not drawn)
- T/C [1]: 96 % of control
- T/C [2]: 96 % of control
- T/C [3]: 100 % of control
- T/C [4]: 100 % of control
- T/C [5]: 89 % of control
- T/C [6]: 86 % of control

SMILES: CC1C2C=CC1C(c1c3ccc(=O)cc-3oc3cc(O)ccc13)C2C(=O)O (stereo not drawn)
- T/C [7]: 98 % of control
- T/C [8]: 104 % of control
- T/C (dose: 400.0 mg/kg/injection, schedule: Q01DX009 (ip), vehicle: saline with Tween-80): 104 % of control

SMILES: COc1ccc(OC)c(NC(=O)Nc2ccccc2C(N)=O)c1
- T/C (dose: 100.0 mg/kg/injection, schedule: Q04DX003 (ip), vehicle: Klucel (hydroxypropylcellulose) (HPC)): 97 % of control
- T/C (dose: 200.0 mg/kg/injection, schedule: Q04DX003 (ip), vehicle: Klucel (hydroxypropylcellulose) (HPC)): 95 % of control
- T/C (dose: 400.0 mg/kg/injection, schedule: Q04DX003 (ip), vehicle: Klucel (hydroxypropylcellulose) (HPC)): 93 % of control

SMILES: CCOC(=O)c1cnc(SCCN2C(=O)c3ccccc3C2=O)[nH]c1=O
- T/C [9]: 100 % of control
- T/C (dose: 200.0 mg/kg/injection, schedule: Q04DX003 (ip), vehicle: gum acacia): 102 % of control
- T/C (dose: 400.0 mg/kg/injection, schedule: Q04DX003 (ip), vehicle: gum acacia): 97 % of control

SMILES: CC(CC(=O)C[N+](=O)[O-])=Nc1ccccc1
- T/C [2]: 90 % of control
- T/C [4]: 104 % of control
- T/C [6]: 97 % of control

SMILES: NC(=O)C(NC(=O)Nc1ccccc1)C(N)=O
- T/C (dose: 12.5 mg/kg/injection, schedule: Q04DX003 (ip), vehicle: gum acacia): 100 % of control
- T/C (dose: 25.0 mg/kg/injection, schedule: Q04DX003 (ip), vehicle: gum acacia): 97 % of control
- T/C (dose: 50.0 mg/kg/injection, schedule: Q04DX003 (ip), vehicle: gum acacia): 92 % of control
- T/C [9]: 98 % of control

SMILES: NC(CCl)CCl
- T/C (dose: 12.5 mg/kg/injection, schedule: Q01DX Z (ip), vehicle: other): 92 % of control
- T/C (dose: 25.0 mg/kg/injection, schedule: Q01DX Z (ip), vehicle: other): 100 % of control
- T/C (dose: 100.0 mg/kg/injection, schedule: Q01DX Z (ip), vehicle: other): 94 % of control

SMILES: C[C@@H]1CN(C(=O)CCOS(C)(=O)=O)[C@@H](C)CN1C(=O)CCOS(C)(=O)=O
- T/C (dose: 2.5 mg/kg/injection, schedule: Q01DX Z (ip), vehicle: carboxymethylcellulose (CMC)): 112 % of control
- T/C (dose: 3.7 mg/kg/injection, schedule: Q01DX Z (ip), vehicle: carboxymethylcellulose (CMC)): 102 % of control
- T/C (dose: 5.6 mg/kg/injection, schedule: Q01DX Z (ip), vehicle: carboxymethylcellulose (CMC)): 115 % of control
- T/C (dose: 8.4 mg/kg/injection, schedule: Q01DX Z (ip), vehicle: carboxymethylcellulose (CMC)): 103 % of control
- T/C (dose: 29.5 mg/kg/injection, schedule: Q01DX Z (ip), vehicle: carboxymethylcellulose (CMC)): 116 % of control
- T/C (dose: 60.0 mg/kg/injection, schedule: Q01DX Z (ip), vehicle: carboxymethylcellulose (CMC)): 166 % of control
- T/C (dose: 198.0 mg/kg/injection, schedule: Q01DX Z (ip), vehicle: carboxymethylcellulose (CMC)): 117 % of control
- T/C (dose: 200.0 mg/kg/injection, schedule: Q01DX Z (ip), vehicle: carboxymethylcellulose (CMC)): 119 % of control
- T/C (dose: 201.0 mg/kg/injection, schedule: Q01DX Z (ip), vehicle: carboxymethylcellulose (CMC)): 91 % of control
- T/C (dose: 300.0 mg/kg/injection, schedule: Q01DX Z (ip), vehicle: carboxymethylcellulose (CMC)): 121 % of control and 90 % of control
- T/C (dose: 302.0 mg/kg/injection, schedule: Q01DX Z (ip), vehicle: carboxymethylcellulose (CMC)): 95 % of control

SMILES: CC(=O)CC(Cl)(C(F)(F)F)C(F)(F)F
- T/C (dose: 50.0 mg/kg/injection, schedule: Q04DX003 (ip), vehicle: saline with Tween-80): 100 % of control
- T/C [10]: 100 % of control
- T/C [11]: 86 % of control
- T/C [12]: 88 % of control

SMILES: CCCCCCCCCCCCCCCCOC(=O)Cl
- T/C (dose: 100.0 mg/kg/injection, schedule: Q01DX001 (ip), vehicle: other): 98 % of control
- T/C (dose: 200.0 mg/kg/injection, schedule: Q01DX001 (ip), vehicle: other): 90 % of control
- T/C (dose: 400.0 mg/kg/injection, schedule: Q01DX001 (ip), vehicle: other): 106 % of control

SMILES: CC(C)NC(=O)Nc1cccc(O)c1
- T/C [10]: 96 % of control
- T/C [11]: 89 % of control
- T/C [12]: 89 % of control

SMILES: CC1(C)OC2OC(C(O)CO)C(O)C2O1 (stereo not drawn) (tested in a mixture with another compound)
- T/C (dose: 12.5 mg/kg/injection, schedule: Q04DX002 (ip), vehicle: saline): 100 % of control
- T/C (dose: 25.0 mg/kg/injection, schedule: Q04DX002 (ip), vehicle: saline): 95 % of control
- T/C (dose: 50.0 mg/kg/injection, schedule: Q04DX002 (ip), vehicle: saline): 95 % of control

SMILES: CCOC(OCC)c1cc(=O)[nH]c(N)n1
- T/C [1]: 101 % of control
- T/C [3]: 97 % of control
- T/C [5]: 96 % of control

SMILES: Cc1cc(-c2ccc(NC(=O)N(C)C)c(C)c2)ccc1NC(=O)N(C)C
- T/C (dose: 100.0 mg/kg/injection, schedule: Q04DX002 (ip), vehicle: saline with Tween-80): 100 % of control
- T/C (dose: 200.0 mg/kg/injection, schedule: Q04DX002 (ip), vehicle: saline with Tween-80): 114 % of control
- T/C [13]: 96 % of control

SMILES: COc1ccc(Cl)cc1NC(=O)Nc1ccc(S(N)(=O)=O)cc1
- T/C [1]: 102 % of control
- T/C [3]: 93 % of control
- T/C [5]: 94 % of control

SMILES: CCCCCC(C)O[Si](C)Oc1ccccc1 (stereo not drawn)
- T/C [10]: 100 % of control
- T/C [11]: 100 % of control
- T/C [12]: 91 % of control

SMILES: [Se]=P(N1CCCCC1)(N1CCCCC1)N1CCCCC1
- T/C (dose: 25.0 mg/kg/injection, schedule: Q01DX009 (ip), vehicle: Klucel (hydroxypropylcellulose) (HPC)): 98 % of control
- T/C (dose: 50.0 mg/kg/injection, schedule: Q01DX009 (ip), vehicle: Klucel (hydroxypropylcellulose) (HPC)): 104 % of control
- T/C [1]: 87 % of control

SMILES: CN(C)CCc1ccccc1
- T/C (dose: 25.6 mg/kg/injection, schedule: Q04DX002 (ip), vehicle: saline with Tween-80): 100 % of control
- T/C (dose: 64.0 mg/kg/injection, schedule: Q04DX002 (ip), vehicle: saline with Tween-80): 103 % of control
- T/C [7]: 100 % of control
- T/C [10]: 102 % of control
- T/C (dose: 160.0 mg/kg/injection, schedule: Q04DX002 (ip), vehicle: saline with Tween-80): 103 % of control
- T/C [8]: 95 % of control
- T/C [11]: 102 % of control
- T/C [13]: 100 % of control
- T/C [12]: 100 % of control

SMILES: Cc1ccc(S(=O)(=O)/N=C(\N)CCl)cc1
- T/C (dose: 12.5 mg/kg/injection, schedule: Q04DX002 (ip), vehicle: saline with Tween-80): 98 % of control
- T/C (dose: 25.0 mg/kg/injection, schedule: Q04DX002 (ip), vehicle: saline with Tween-80): 120 % of control
- T/C (dose: 50.0 mg/kg/injection, schedule: Q04DX002 (ip), vehicle: saline with Tween-80): 95 % of control

SMILES: C=Cc1cccc[n+]1[O-]
- T/C [14]: 115 % of control
- T/C [15]: 102 % of control
- T/C (dose: 400.0 mg/kg/injection, schedule: Q01DX009 (ip), vehicle: saline): 102 % of control

SMILES: NC(=S)c1ccccc1N
- T/C (dose: 15.0 mg/kg/injection, schedule: Q01DX Z (ip), vehicle: methylcellulose (MC)): 110 % of control
- T/C (dose: 30.0 mg/kg/injection, schedule: Q01DX Z (ip), vehicle: methylcellulose (MC)): 98 % of control
- T/C (dose: 60.0 mg/kg/injection, schedule: Q01DX Z (ip), vehicle: methylcellulose (MC)): 101 % of control
- T/C (dose: 120.0 mg/kg/injection, schedule: Q01DX Z (ip), vehicle: methylcellulose (MC)): 115 % of control

SMILES: COc1cccc(/C=C2/COC/C(=C\c3cccc(OC)c3OC)C2=O)c1OC
- T/C [14]: 91 % of control
- T/C [15]: 97 % of control

SMILES: C[n+]1ccccc1/C=C/c1ccnc2c(O)cccc12
- T/C (dose: 75.0 mg/kg/injection, schedule: Q01DX001 (ip), vehicle: carboxymethylcellulose (CMC)): 107 % of control
- T/C (dose: 150.0 mg/kg/injection, schedule: Q01DX001 (ip), vehicle: carboxymethylcellulose (CMC)): 102 % of control

SMILES: CC1(O)CCCCC1c1ccccc1 (stereo not drawn)
- T/C (dose: 100.0 mg/kg/injection, schedule: Q04DX003 (ip), vehicle: other): 104 % of control
- T/C (dose: 200.0 mg/kg/injection, schedule: Q04DX003 (ip), vehicle: other): 95 % of control
- T/C (dose: 400.0 mg/kg/injection, schedule: Q04DX003 (ip), vehicle: other): 93 % of control

SMILES: CCNc1nc(N)nc(Cl)c1N
- T/C [10]: 107 % of control
- T/C [11]: 100 % of control
- T/C [12]: 105 % of control
